According to patent US6589963B2, “Heterocyclic compounds and salts thereof and medicinal use of the same” (Kyoto Pharmaceutical Industries, Ltd., priority 1999, dated 2003):

Experiments:
male KK-A^y mice [1] = experiment: Hypotriglyceridemic action; assay type: in vivo, mouse; conditions: 4 consecutive days, non-fasting, about 24 hours after final administration, vs control group
Protocol: (§1) The triglyceride level in the plasma was measured using a commercially available assay kit (triglyceride G-test WAKO, Wako Pure Chemical Industries, Ltd.). The mice were grouped (5 mice per group) into a control group and an administration group, such that the mean and the standard deviation of the triglyceride level in the plasma of each group were nearly the same. Each test compound was suspended or dissolved in 5% gum arabic solution and administered orally to the administration group for 4 consecutive days from the next day. The 5% gum arabic solution was orally administered to the control group. Blood was drawn from the tail vein under a non-fasting state about 24 hours after the final administration and the triglyceride level in the plasma was measured. The decrease in the plasma triglyceride level was calculated from the following formula.
Decrease (%) in plasma triglyceride level=[(mean plasma triglyceride level of control group−mean plasma triglyceride level of test compound administration group)/mean plasma triglyceride level of control group]×100

male KK-A^y mice [2] = experiment: Hypoglycemic action (method A); assay type: in vivo, mouse; conditions: 4 consecutive days, non-fasting, about 24 hours after final administration, vs control group
Protocol: as §1, with “glucose” for “triglyceride”, “(glucose CII-test” for “(triglyceride G-test”
Decrease (%) in plasma glucose level=[(mean plasma glucose level of control group−mean plasma glucose level of test compound administration group)/mean plasma glucose level of control group]×100

Row | Molecule | Decrease (%) in plasma triglyceride level (male KK-A^y mice [1]; dose 30 mg/kg orally) [%] | Decrease (%) in plasma glucose level (male KK-A^y mice [2]; dose 30 mg/kg orally) [%] | Decrease (%) in plasma triglyceride level (male KK-A^y mice [1]; dose 10 mg/kg orally) [%] | Decrease (%) in plasma glucose level (male KK-A^y mice [2]; dose 10 mg/kg orally) [%]
1 | 7-[2-(5-Methyl-2-phenyloxazol-4-yl)ethoxy]-2-(4-pentenoyl)-1,2,3,4-tetrahydroisoquinoline-(3S)-carboxylic acid [Example 44] | 19.1 | 48.0 | – | –
2 | CCCCN1Cc2cc(OCCc3nc(-c4ccccc4)oc3C)ccc2C[C@H]1C(=O)O [Example 35, 2-Butyl-7-[2-(5-methyl-2-phenyloxazol-4-yl)ethoxy]-1,2,3,4-tetrahydroisoquinoline-(3S)-carboxylic acid] | 12.4 | 22.1 | – | –
3 | Cc1oc(-c2ccccc2)nc1CCOc1ccc2c(c1)CN(C)[C@H](C(=O)O)C2 [Example 4, 2-Methyl-7-[2-(5-methyl-2-phenyloxazol-4-yl)ethoxy]-1,2,3,4-tetrahydroisoquinoline-(3S)-carboxylic acid] | – | – | 14.3 | –
4 | CCc1ccc(CCOc2ccc3c(c2)CN(Cc2ccccc2)[C@H](C(=O)[O-])C3)nc1.[Na+] [Example 12, Sodium 2-benzyl-7-[2-(5-ethyl-pyridin-2-yl)ethoxy]1,2,3,4-tetrahydroisoquinoline-(3S)-carboxylate] | – | – | 22.9 | 12.0
5 | CN(CCOc1ccc2c(c1)CN(Cc1ccccc1)[C@H](C(=O)[O-])C2)c1ccccn1.[Na+] [Example 11, Sodium 2-benzyl-7-[2-(N-methyl-N-(pyridin-2-yl)amino)ethoxy]-1,2,3,4-tetrahydroisoquinoline-(3S)-carboxylate] | – | – | 11.2 | –
6 | CC(=O)c1cccc(CN2Cc3cc(OCCc4nc(-c5ccccc5)oc4C)ccc3C[C@H]2C(=O)O)c1 [Example 73, 2-(3-Acetylbenzyl)-7-[2-(5-methyl-2-phenyloxazol-4-yl)ethoxy]-1,2,3,4-tetrahydroisoquinoline-(3S)-carboxylic acid] | 15.4 | 14.8 | – | –
7 | C=CCN1Cc2cc(OCCc3nc(-c4ccccc4)oc3C)ccc2C[C@H]1C(=O)O [Example 38, 2-Allyl-7-[2-(5-methyl-2-phenyloxazol-4-yl)ethoxy]-1,2,3,4-tetrahydroisoquinoline-(3S)-carboxylic acid] | 30.0 | 28.0 | – | –
8 | Cc1oc(-c2ccccc2)nc1CCOc1ccc2c(c1)CC(C(=O)O)N(Cc1ccccc1)C2 (racemic) [Example 72, 2-Benzyl-6-[2-(5-methyl-2-phenyloxazol-4-yl)ethoxy]-1,2,3,4-tetrahydroisoquinoline-(3RS)-carboxylic acid] | 24.0 | 15.9 | – | –
9 | CCCCC(=O)N1Cc2cc(OCCc3nc(-c4ccccc4)oc3C)ccc2C[C@H]1C(=O)O [Example 43, 7-[2-(5-Methyl-2-phenyloxazol-4-yl)ethoxy]-2-pentanoyl-1,2,3,4-tetrahydroisoquinoline-(3S)-carboxylic acid] | 20.9 | 27.5 | – | –
10 | Cc1oc(-c2ccccc2)nc1CCOc1ccc2c(c1)CN(Cc1ccncc1)[C@H](C(=O)[O-])C2.[Na+] [Example 56, Sodium 7-[2-(5-methyl-2-phenyloxazol-4-yl)ethoxy]-2-(pyridin-4-ylmethyl)-1,2,3,4-tetrahydroisoquinoline-(3S)-carboxylate] | 14.0 | – | – | –
11 | Cc1oc(C2CC2)nc1CCOc1ccc2c(c1)CN(Cc1ccccc1)[C@H](C(=O)O)C2 [Example 59, 2-Benzyl-7-[2-(2-cyclopropyl-5-methyloxazol-4-yl)ethoxy]-1,2,3,4-tetrahydroisoquinoline-(3S)-carboxylic acid] | 13.7 | – | – | –
12 | CC(C)(CCOc1ccc2c(c1)CN(Cc1ccccc1)[C@H](C(=O)O)C2)c1ccccc1 [Example 49, 2-Benzyl-7-(3-methyl-3-phenylbutoxy)-1,2,3,4-tetrahydroisoquinoline-(3S)-carboxylic acid] | 17.0 | 11.1 | – | –
13 | COC(=O)[C@@H]1Cc2ccc(OCCc3nc(-c4ccccc4)oc3C)cc2CN1Cc1ccccc1 [Example 58, Methyl 2-benzyl-7-[2-(5-methyl-2-phenyloxazol-4-yl)ethoxy]-1,2,3,4-tetrahydroisoquinoline-(3S)-carboxylate] | 24.7 | 19.1 | – | –
14 | CC(C)(C)c1nc2ccc(COc3ccc4c(c3)CN(Cc3ccccc3)[C@H](C(=O)O)C4)cc2o1 [Example 52, 2-Benzyl-7-(2-tert-butylbenzoxazol-6-yl)methoxy-1,2,3,4-tetrahydroisoquinoline-(3S)-carboxylic acid] | 26.6 | 26.3 | – | –
15 | Cc1oc(C(C)C)nc1CCOc1ccc2c(c1)CN(Cc1ccccc1)[C@H](C(=O)O)C2 [Example 34, 2-Benzyl-7-[2-(5-methyl-2-isopropyloxazol-4-yl)ethoxy]-1,2,3,4-tetrahydroisoquinoline-(3S)-carboxylic acid] | 17.3 | 23.5 | – | –
16 | Cc1oc(-c2ccccc2)nc1CCOc1ccc2c(c1)CN(CC(=O)O)[C@H](C(=O)O)C2 [Example 69, 2-Carboxymethyl-7-[2-(5-methyl-2-phenyloxazol-4-yl)ethoxy]-1,2,3,4-tetrahydroisoquinoline-(3S)-carboxylic acid] | 15.2 | 12.5 | – | –
17 | CC(C)c1nc2ccc(COc3ccc4c(c3)CN(Cc3ccccc3)[C@H](C(=O)O)C4)cc2o1 [Example 51, 2-Benzyl-7-(2-isopropylbenzoxazol-6-yl)methoxy-1,2,3,4-tetrahydroisoquinoline-(3S)-carboxylic acid] | 10.7 | 20.0 | – | –
18 | Cc1ccc(CN2Cc3cc(OCCc4nc(-c5ccccc5)oc4C)ccc3C[C@H]2C(=O)O)cc1 [Example 18, 2-(4-Methylbenzyl)-7-[2-(5-methyl-2-phenyloxazol-4-yl)ethoxy]-1,2,3,4-tetrahydroisoquinoline-(3S)-carboxylic acid] | 45.5 | 39.7 | – | –
19 | CC(C)(C)c1nc2cc(COc3ccc4c(c3)CN(Cc3ccccc3)[C@H](C(=O)O)C4)ccc2o1 [Example 53, 2-Benzyl-7-(2-tert-butylbenzoxazol-5-yl)methoxy-1,2,3,4-tetrahydroisoquinoline-(3S)-carboxylic acid] | – | 13.6 | – | –
20 | CC(=O)N1Cc2cc(OCCc3nc(-c4ccccc4)oc3C)ccc2C[C@H]1C(=O)O [Example 3, 2-Acetyl-7-[2-(5-methyl-2-phenyloxazol-4-yl)ethoxy]-1,2,3,4-tetrahydroisoquinoline-(3S)-carboxylic acid] | – | 11.8 | – | –
